Measured values from patent US20040067891A1, “Therapeutic and/or preventive agents for diseases due to retinal ischemia” (priority 2000, published 2004).

Experiments:
rats = assay: single-dose oral toxicity in rats; format: in vivo, rat; conditions: single-dose oral administration to rats
Procedure: The compound represented by the formula (I) or a non-toxic salt thereof has markedly low toxicity so that use of it as a pharmaceutical can be considered as safe enough. For example, the minimum lethal dose of the compound represented by the formula (I) by single-dose oral administration to rats was 2000 mg/kg or more.

[1] = test system: retinal disorders due to transient retinal ischemia; assay: rat model with retinal disorders due to transient retinal ischemia; format: in vivo; conditions: SD male rats
Procedure: Effects of the compound represented by the formula (I) (which will hereinafter be called “compound of the present invention”) on a rat model with retinal disorders due to transient retinal ischemia;
The model with retinal disorders due to transient retinal ischemia was prepared in accordance with the method described in Eur. J. Pharmaco., 350, 53-57 (1998).
After rats (SD male rats, 9-week-old (purchased from Charles River Japan, Inc.)) were weighed, pentobarbital sodium (Pentbarbital Na) (50-75 mg/kg) was intraperitoneally administered to anesthetize them. They were fixed to a platform, and kept warm at around 37° C. A perfusate for ophthalmic surgery (“BSS PLUS”; product of Santen Pharmaceutical) was hung so that the height from the position of the eyes of the rats would be 170 cm±5 cm. This height permitted application of pressure of about 130 mmHg. To the perfusate bottle was connected an extension tube and an injection needle (27 gauge×¾ inch) was attached to another end of the tube. […]
After the eyeballs were immobilized in a Davidson's fixative and a paraffin section was prepared at the cross-section passing through the optic papilla, it was dyed with hematoxylin and eosin (H.E.). […] The number of granule cells (GCL (ganglion cell layer), cell/mm) per 1 mm width of the optic papilla was counted by optical microscopic examination. […]

Structure (SMILES): CC(C)(C)OC(=O)N1CSC[C@H]1C(=O)N[C@@H](CSCC1CCCCC1)C(=O)NC1CCN(Cc2ccccc2)CC1 [Compound of the present invention, (2R)-N-(1-Benzylpiperidin-4-yl)-3-cyclohexylmethylthio-2-((4R)-3-t-butoxycarbonylthiazolidin-4-ylcarbonylamino)propanamide]
- minimum lethal dose (rats): ≥ 2000 mg/kg
- The number of granule cells (GCL) ([1]; 100 mg/5 mL/kg oral one hour before 45 min ischemia, counted one week after ischemia, per 1 mm width of the optic papilla): 49.2 cell/mm
- inhibiting activity to the model of retinal disorders due to transient retinal ischemia ([1]; 100 mg/kg oral one hour before ischemia, from granule cell counts of Table 1): 34%
